Test results reported in ChEMBL document CHEMBL3045223, “Synthesis, nematicidal and antimicrobial properties of Bis-[4-methoxy-3-[3-(4-fluorophenyl)-6-(4-methylphenyl)-2(aryl)-tetrahydro-2H-pyrazolo[3,4-d]thiazol-5-yl]phenyl]methanes” (2009).
In brackets after ≈: the same amount, converted by molar mass. Activity calls are given as the source filed them. No cut-off for these calls is given here.

Tests used:
Format in all cases: functional
[1] = system: Trichophyton mentagrophytes; assay: Antifungal activity against Trichophyton mentagrophytes IFO 40996 assessed as growth inhibition at 37 degC for 48 hr
Trichophyton rubrum [2] = assay: Antifungal activity against Trichophyton rubrum IFO 9185 assessed as growth inhibition at 37 degC for 48 hr; details: IFO 9185, 48 h
Aspergillus fumigatus [3] = assay: Antifungal activity against Aspergillus fumigatus HIC 6094 assessed as growth inhibition at 37 degC for 48 hr; details: HIC 6094, 48 h
Candida albicans [4] = assay: Antifungal activity against Candida albicans ATCC 10231 assessed as growth inhibition at 37 degC for 48 hr; details: ATCC 10231, 48 h
[5] = system: Trichophyton mentagrophytes; assay: Antifungal activity against Trichophyton mentagrophytes IFO 40996 assessed as growth inhibition at 300 ug/disc at 37 degC for 48 hr
Trichophyton rubrum [6] = assay: Antifungal activity against Trichophyton rubrum IFO 9185 assessed as growth inhibition at 300 ug/disk at 37 degC for 48 hr; details: for zone of inhibition at 300 µg/disc: IFO 9185, 48 h, read-out: IZ
Aspergillus fumigatus [7] = assay: Antifungal activity against Aspergillus fumigatus HIC 6094 assessed as growth inhibition at 300 ug/disc at 37 degC for 48 hr
Candida albicans [8] = assay: Antifungal activity against Candida albicans ATCC 10231 assessed as growth inhibition at 300 ug/disk at 37 degC for 48 hr; details: for zone of inhibition at 300 µg/disc: ATCC 10231, 48 h, read-out: IZ
[9] = system: Chromobacterium violaceum; assay: Antibacterial activity against Chromobacterium violaceum MTCC 2656 assessed as growth arrest at 37 degC for 24 hr; details: MTCC 2656, 24 h
Klebsiella aerogenes [10] = assay: Antibacterial activity against Enterobacter aerogenes MTCC 39 assessed as growth arrest at 37 degC for 24 hr; details: MTCC 39, 24 h
Pseudomonas aeruginosa [11] = assay: Antibacterial activity against Pseudomonas aeruginosa MTCC 741 assessed as growth arrest at 37 degC for 24 hr; details: MTCC 741, 24 h
Staphylococcus aureus [12] = assay: Antibacterial activity against Staphylococcus aureus MTCC 96 assessed as growth arrest at 37 degC for 24 hr; details: MTCC 96, 24 h
[13] = system: Lysinibacillus sphaericus; assay: Antibacterial activity against Lysinibacillus sphaericus MTCC 11 assessed as growth arrest at 37 degC for 24 hr; details: MTCC 11, 24 h
Bacillus subtilis [14] = assay: Antibacterial activity against Bacillus subtilis MTCC 441 assessed as growth arrest at 37 degC for 24 hr; details: MTCC 441, 24 h
[15] = system: Chromobacterium violaceum; assay: Antibacterial activity against Chromobacterium violaceum MTCC 2656 assessed as inhibition zones at 300 ug/disk at 37 degC for 24 hr; details: MTCC 2656, 24 h, read-out: IZ
Klebsiella aerogenes [16] = assay: Antibacterial activity against Enterobacter aerogenes MTCC 39 assessed as inhibition zones at 300 ug/disk at 37 degC for 24 hr; details: MTCC 39, 24 h, read-out: IZ
Pseudomonas aeruginosa [17] = assay: Antibacterial activity against Pseudomonas aeruginosa MTCC 741 assessed as inhibition zones at 300 ug/disk at 37 degC for 24 hr; details: MTCC 741, 24 h, read-out: IZ
Staphylococcus aureus [18] = assay: Antibacterial activity against Staphylococcus aureus MTCC 96 assessed as inhibition zones at 300 ug/disc at 37 degC for 24 hr; details: MTCC 96, 24 h, read-out: IZ
[19] = system: Lysinibacillus sphaericus; assay: Antibacterial activity against Lysinibacillus sphaericus MTCC 11 assessed as inhibition zones at 300 ug/disk at 37 degC for 24 hr; details: MTCC 11, 24 h, read-out: IZ
Bacillus subtilis [20] = assay: Antibacterial activity against Bacillus subtilis MTCC 441 assessed as inhibition zones at 300 ug/disk at 37 degC for 24 hr; details: MTCC 441, 24 h, read-out: IZ
Caenorhabditis elegans = assay: Nematicidal activity against Caenorhabditis elegans assessed as immobility; details: read-out: LD50 (the source's name)
[21] = system: Ditylenchus myceliophagus; assay: Nematicidal activity against Ditylenchus myceliophagus assessed as immobility; details: read-out: LD50 (the source's name)

For `COc1ccc(Cc2ccc(OC)c(C3SC4C(=NN(c5ccc(Cl)cc5)C4c4ccc(F)cc4)N3c3ccc(Cl)cc3)c2)cc1C1SC2C(=NN(c3ccc(Cl)cc3)C2c2ccc(F)cc2)N1c1ccc(Cl)cc1` (stereo unspecified), the MBC ([1]; IFO 40996, 48 h) was 50 µg/mL (≈ 44.9 µM), the MIC ([1]; IFO 40996, 48 h) was 25 µg/mL (≈ 22.5 µM) and the MBC (Trichophyton rubrum [2]) was 12.5 µg/mL (≈ 11.2 µM). The MIC (Trichophyton rubrum [2]) was 12.5 µg/mL (≈ 11.2 µM), the MBC (Aspergillus fumigatus [3]) was 25 µg/mL (≈ 22.5 µM) and the MIC (Aspergillus fumigatus [3]) was 25 µg/mL (≈ 22.5 µM). The MBC (Candida albicans [4]) was 12.5 µg/mL (≈ 11.2 µM), the MIC (Candida albicans [4]) was 12.5 µg/mL (≈ 11.2 µM) and the “inhibition zone (IZ)” value [5] was “inactive”. For the same molecule, the zone of inhibition at 300 µg/disc (Trichophyton rubrum [6]) was 15 mm, the “inhibition zone (IZ)” value (Aspergillus fumigatus [7]) was “inactive” and the “inhibition zone (IZ)” value (Candida albicans [8]) was “inactive”. For the same molecule, the MBC [9] was 50 µg/mL (≈ 44.9 µM), the MIC [9] was 25 µg/mL (≈ 22.5 µM) and the MBC (Klebsiella aerogenes [10]) was 12.5 µg/mL (≈ 11.2 µM). It also gave an MIC (Klebsiella aerogenes [10]) of 12.5 µg/mL (≈ 11.2 µM), an MBC (Pseudomonas aeruginosa [11]) of 50 µg/mL (≈ 44.9 µM) and an MIC (Pseudomonas aeruginosa [11]) of 50 µg/mL (≈ 44.9 µM). It also gave an MBC (Staphylococcus aureus [12]) of 50 µg/mL (≈ 44.9 µM), an MIC (Staphylococcus aureus [12]) of 12.5 µg/mL (≈ 11.2 µM) and an MBC [13] of 25 µg/mL (≈ 22.5 µM). It also gave an MIC [13] of 6.25 µg/mL (≈ 5.62 µM), an MBC (Bacillus subtilis [14]) of 25 µg/mL (≈ 22.5 µM) and an MIC (Bacillus subtilis [14]) of 12.5 µg/mL (≈ 11.2 µM). The zone of inhibition at 300 µg/disc [15] was 18 mm, the zone of inhibition at 300 µg/disc (Klebsiella aerogenes [16]) was 19 mm and the zone of inhibition at 300 µg/disc (Pseudomonas aeruginosa [17]) was 18 mm. It also gave a zone of inhibition at 300 µg/disc (Staphylococcus aureus [18]) of 22 mm, a zone of inhibition at 300 µg/disc [19] of 19 mm and a zone of inhibition at 300 µg/disc (Bacillus subtilis [20]) of 11 mm. For the same molecule, the LC50 (Caenorhabditis elegans) was 380 µg/mL (≈ 341 µM) and the LC50 [21] was 290 µg/mL (≈ 261 µM).
`COc1ccc(N2N=C3C(SC(c4cc(Cc5ccc(OC)c(C6SC7C(=NN(c8ccc(OC)cc8)C7c7ccc(F)cc7)N6c6ccc(C)cc6)c5)ccc4OC)N3c3ccc(C)cc3)C2c2ccc(F)cc2)cc1` (stereo unspecified) was tested, and the MBC ([1]; IFO 40996, 48 h) was 25 µg/mL (≈ 23.5 µM), the MIC ([1]; IFO 40996, 48 h) was 12.5 µg/mL (≈ 11.8 µM) and the MBC (Trichophyton rubrum [2]) was 12.5 µg/mL (≈ 11.8 µM). It also gave an MIC (Trichophyton rubrum [2]) of 12.5 µg/mL (≈ 11.8 µM), an MBC (Aspergillus fumigatus [3]) of 50 µg/mL (≈ 47 µM) and an MIC (Aspergillus fumigatus [3]) of 25 µg/mL (≈ 23.5 µM). The MBC (Candida albicans [4]) was 25 µg/mL (≈ 23.5 µM), the MIC (Candida albicans [4]) was 25 µg/mL (≈ 23.5 µM) and the zone of inhibition at 300 µg/disc ([5]; IFO 40996, 48 h, read-out: IZ) was 12 mm. It also gave a zone of inhibition at 300 µg/disc (Trichophyton rubrum [6]) of 13 mm, a zone of inhibition at 300 µg/disc (Aspergillus fumigatus [7]; HIC 6094, 48 h, read-out: IZ) of 15 mm and a zone of inhibition at 300 µg/disc (Candida albicans [8]) of 9 mm. It also gave an MBC [9] of 12.5 µg/mL (≈ 11.8 µM), an MIC [9] of 6.25 µg/mL (≈ 5.88 µM) and an MBC (Klebsiella aerogenes [10]) of 25 µg/mL (≈ 23.5 µM). For the same molecule, the MIC (Klebsiella aerogenes [10]) was 25 µg/mL (≈ 23.5 µM), the MBC (Pseudomonas aeruginosa [11]) was 25 µg/mL (≈ 23.5 µM) and the MIC (Pseudomonas aeruginosa [11]) was 12.5 µg/mL (≈ 11.8 µM). For the same molecule, the MBC (Staphylococcus aureus [12]) was 25 µg/mL (≈ 23.5 µM), the MIC (Staphylococcus aureus [12]) was 25 µg/mL (≈ 23.5 µM) and the MBC [13] was 50 µg/mL (≈ 47 µM). The MIC [13] was 50 µg/mL (≈ 47 µM), the MBC (Bacillus subtilis [14]) was 25 µg/mL (≈ 23.5 µM) and the MIC (Bacillus subtilis [14]) was 25 µg/mL (≈ 23.5 µM). For the same molecule, the zone of inhibition at 300 µg/disc [15] was 17 mm, the zone of inhibition at 300 µg/disc (Klebsiella aerogenes [16]) was 20 mm and the zone of inhibition at 300 µg/disc (Pseudomonas aeruginosa [17]) was 18 mm. The zone of inhibition at 300 µg/disc (Staphylococcus aureus [18]) was 26 mm, the zone of inhibition at 300 µg/disc [19] was 15 mm and the zone of inhibition at 300 µg/disc (Bacillus subtilis [20]) was 15 mm. For the same molecule, the LC50 (Caenorhabditis elegans) was 870 µg/mL (≈ 818 µM) and the LC50 [21] was 950 µg/mL (≈ 893 µM).
With `COc1ccc(N2N=C3C(SC(c4cc(Cc5ccc(OC)c(C6SC7C(=NN(c8ccc(OC)cc8)C7c7ccc(F)cc7)N6c6ccc([N+](=O)[O-])cc6)c5)ccc4OC)N3c3ccc([N+](=O)[O-])cc3)C2c2ccc(F)cc2)cc1` (stereo unspecified) the MBC [1] was “inactive”, the MIC [1] was “inactive” and the MBC (Trichophyton rubrum [2]) was 25 µg/mL (≈ 22.2 µM). It also gave an MIC (Trichophyton rubrum [2]) of 12.5 µg/mL (≈ 11.1 µM), an MBC (Aspergillus fumigatus [3]) of 25 µg/mL (≈ 22.2 µM) and an MIC (Aspergillus fumigatus [3]) of 12.5 µg/mL (≈ 11.1 µM). For the same molecule, the MBC (Candida albicans [4]) was 12.5 µg/mL (≈ 11.1 µM), the MIC (Candida albicans [4]) was 6.25 µg/mL (≈ 5.55 µM) and the “inhibition zone (IZ)” value [5] was “inactive”. The “inhibition zone (IZ)” value (Trichophyton rubrum [6]) was “inactive”, the “inhibition zone (IZ)” value (Aspergillus fumigatus [7]) was “inactive” and the zone of inhibition at 300 µg/disc (Candida albicans [8]) was 13 mm. For the same molecule, the MBC [9] was 25 µg/mL (≈ 22.2 µM), the MIC [9] was 12.5 µg/mL (≈ 11.1 µM) and the MBC (Klebsiella aerogenes [10]) was 12.5 µg/mL (≈ 11.1 µM). For the same molecule, the MIC (Klebsiella aerogenes [10]) was 6.25 µg/mL (≈ 5.55 µM), the MBC (Pseudomonas aeruginosa [11]) was 25 µg/mL (≈ 22.2 µM) and the MIC (Pseudomonas aeruginosa [11]) was 12.5 µg/mL (≈ 11.1 µM). For the same molecule, the MBC (Staphylococcus aureus [12]) was 25 µg/mL (≈ 22.2 µM), the MIC (Staphylococcus aureus [12]) was 12.5 µg/mL (≈ 11.1 µM) and the MBC [13] was 50 µg/mL (≈ 44.4 µM). For the same molecule, the MIC [13] was 12.5 µg/mL (≈ 11.1 µM), the MBC (Bacillus subtilis [14]) was 25 µg/mL (≈ 22.2 µM) and the MIC (Bacillus subtilis [14]) was 12.5 µg/mL (≈ 11.1 µM). For the same molecule, the zone of inhibition at 300 µg/disc [15] was 16 mm, the zone of inhibition at 300 µg/disc (Klebsiella aerogenes [16]) was 21 mm and the zone of inhibition at 300 µg/disc (Pseudomonas aeruginosa [17]) was 9 mm. It also gave a zone of inhibition at 300 µg/disc (Staphylococcus aureus [18]) of 21 mm, a zone of inhibition at 300 µg/disc [19] of 20 mm and a zone of inhibition at 300 µg/disc (Bacillus subtilis [20]) of 14 mm. For the same molecule, the LC50 (Caenorhabditis elegans) was 810 µg/mL (≈ 720 µM) and the LC50 [21] was 920 µg/mL (≈ 818 µM).
